Experimental data taken from article PMC5601180, “Uptake and metabolism of sulphated steroids by the blood–brain barrier in the adult male rat” (Journal of Neurochemistry, 2017).

Tested on: efflux transporters
Experiment: Brain perfusion in situ with efflux transporter inhibitors co-perfused with 3H-steroid sulphate
Type: in vivo, rat
Conditions: GF120918 3 μM or MK571 50 μM co-perfused, alone or in combination; 0.5 min perfusion
Procedure: Figure 3 Effect of the efflux inhibitors GF120918 (3 μM) and MK571 (50 μM), alone or in combination, on the brain uptake of either ^3H‐dehydroepiandrosterone sulphate (DHEAS) or ^3H‐pregnenolone sulphate (PregS) after 0.5 min perfusion. […] All values mean ± SEM, n = 3. The effect of 0.5 mM of the corresponding unlabelled steroid sulphate (SS) in addition to the inhibitors is also shown. […] The inhibitors GF120918 and MK571 were dissolved in dimethylsulphoxide to a maximum final concentration of 0.8% (v/v) in the perfusate.

| Compound | effect on brain uptake of 3H-DHEAS | effect on brain uptake of 3H-PregS |
| --- | --- | --- |
| COc1cc2c(cc1OC)CN(CCc1ccc(NC(=O)c3cccc4c(=O)c5cccc(OC)c5[nH]c34)cc1)CC2.Cl [GF120918, 9,10‐dihydro‐5‐methoxy‐9‐oxo‐N‐[4‐[2‐(1,2,3,4‐tetrahydro‐6,7‐dimethoxy‐2‐isoquinolinyl)ethyl]phenyl]‐4‐acridine‐carboxamide hydrochloride] | significant decrease in uptake | significant decrease in uptake |
| CN(C)C(=O)CCSC(SCCC(=O)O)c1cccc(/C=C/c2ccc3ccc(Cl)cc3n2)c1 (stereo not shown) [MK571, 3‐[[[3‐[(1E)‐2‐(7‐Chloro‐2‐quinolinyl)ethenyl]phenyl][[3‐(dimethylamino)‐3‐oxopropyl]thio]methyl]thio]propanoic acid] | significant decrease in uptake | significant decrease in uptake |
